By IC50 is commonly meant the concentration needed to halve the response being measured.

The target in the assay is T1, SARM1 (50-724) (Homo sapiens, UniProt Q6SZW1).
T1 construct: Purified SARM1 (50-724) with a final concentration of 2 nM
T1 sequence (Q6SZW1 50-724): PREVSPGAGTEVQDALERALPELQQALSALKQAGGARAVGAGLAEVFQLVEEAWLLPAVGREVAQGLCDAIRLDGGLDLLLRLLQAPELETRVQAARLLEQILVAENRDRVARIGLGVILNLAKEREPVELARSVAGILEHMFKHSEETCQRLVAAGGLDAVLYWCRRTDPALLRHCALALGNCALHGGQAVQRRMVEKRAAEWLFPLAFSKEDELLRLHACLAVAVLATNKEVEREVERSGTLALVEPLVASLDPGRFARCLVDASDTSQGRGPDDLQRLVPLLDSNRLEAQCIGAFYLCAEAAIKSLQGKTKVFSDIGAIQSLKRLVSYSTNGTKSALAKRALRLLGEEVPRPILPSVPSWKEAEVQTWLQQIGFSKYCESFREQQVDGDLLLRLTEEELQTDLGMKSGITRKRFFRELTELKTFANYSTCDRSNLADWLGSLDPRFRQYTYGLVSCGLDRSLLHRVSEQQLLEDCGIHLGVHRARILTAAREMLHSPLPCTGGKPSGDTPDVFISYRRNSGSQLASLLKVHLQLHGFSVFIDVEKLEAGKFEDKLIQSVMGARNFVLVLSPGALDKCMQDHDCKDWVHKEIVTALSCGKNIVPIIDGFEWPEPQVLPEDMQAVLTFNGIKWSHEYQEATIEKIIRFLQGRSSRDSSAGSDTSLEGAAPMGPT
The assay is described as follows: SARM1 (50-724) enzymatic assay (NMN-activated NAD+ hydrolysis, LC-MS/MS readout). It counts as biochemical. The conditions noted are these: purified SARM1 (50-724) 2 nM, 200 μM NMN activator, 100 μM NAD+ substrate, 1 h at room temperature, read-out: IC50 (SARM1 inhibitory activity). As to the method: Example II. SARM1 (50-724) Enzymatic Assay
An enzymatic assay was performed in a 384-well plate using Dulbecco's phosphate-buffered saline (PBS) as the reaction buffer. Purified SARM1 (50-724) with a final concentration of 2 nM was pre-incubated with a test compound at 1% DMSO final assay concentration for 15 min at room temperature. The reaction was initiated by adding a mixture of 200 μM nicotinamide mononucleotide (NMN) as activator and 100 μM NAD^+ as substrate. After 1 h of incubation at room temperature, the reaction was terminated with 10 times volume of 70% acetonitrile, then centrifuged at 3800 rpm for 10 min. The samples were analyzed using LC-MS/MS after diluted to a proper concentration by 10 mM ammonium acetate (pH 9.75).
ND means “not determined.”
Turning to `CC1(CN(C(=O)c2nc3cc(C(F)(F)F)ccc3[nH]2)c2cccc(Cl)c2Cl)COC1` [Compound 181, N-(2,3-dichlorophenyl)-N-((3-methyloxetan-3-yl)methyl)-5-(trifluoromethyl)-1H-benzo[d]imidazole-2-carboxamide], the IC50 is not above 100 nM.
`O=C(c1nc2cc(C(F)(F)F)ccc2[nH]1)N(CC1(O)CC1)c1cccc(Cl)c1Cl` [Compound 197, N-(2,3-dichlorophenyl)-N-((1-hydroxycyclopropyl)methyl)-5-(trifluoromethyl)-1H-benzo[d]imidazole-2-carboxamide]: the IC50 is not above 100 nM.
Take `CC(C)(C)c1ccc2[nH]c(C(=O)N(CCO)c3cccc(F)c3Cl)nc2c1` [Compound 201]: the IC50 is not above 100 nM.
Regarding `O=C(c1nc2cc(C(F)(F)F)ccc2[nH]1)N(CCOCCO)c1cccc(Cl)c1Cl` [Compound 128, N-(2,3-dichlorophenyl)-N-(2-(2-hydroxyethoxy)ethyl)-5-(trifluoromethyl)-1H-benzo[d]imidazole-2-carboxamide], the IC50 is not above 100 nM.
In the case of `CS(=O)(=O)CCCN(C(=O)c1nc2cc(C(F)(F)F)ccc2[nH]1)c1cccc(Cl)c1Cl` [Compound 129, N-(2,3-dichlorophenyl)-N-(3-(methylsulfonyl)propyl)-5-(trifluoromethyl)-1H-benzo[d]imidazole-2-carboxamide], the IC50 is not above 100 nM.
Turning to `Cc1ccc2[nH]c(C(=O)NC(C)CC(C)C)c(CNc3ccccn3)c2c1` (stereo not drawn) [Compound 89, 5-methyl-N-(4-methylpentan-2-yl)-3-((pyridin-2-ylamino)methyl)-1H-indole-2-carboxamide], the IC50 lay in the range of 501 to 1000 nM.
Regarding `CS(=O)(=O)NCCN(C(=O)c1nc2cc(C(F)(F)F)ccc2[nH]1)c1cccc(Cl)c1Cl` [Compound 147, N-(2,3-dichlorophenyl)-N-(2-(methylsulfonamido)ethyl)-5-(trifluoromethyl)-1H-benzo[d]imidazole-2-carboxamide], the IC50 is not above 100 nM.
Turning to `O=C(c1nc2cc(C(F)(F)F)ccc2[nH]1)N(CCN1CCCS1(=O)=O)c1cccc(Cl)c1Cl` [Compound 199, N-(2,3-dichlorophenyl)-N-(2-(1,1-dioxidoisothiazolidin-2-yl)ethyl)-5-(trifluoromethyl)-1H-benzo[d]imidazole-2-carboxamide], the IC50 was not above 100 nM.
As to `Cc1ccc2[nH]c(C(=O)N(C)c3ccc(Cl)c(Cl)c3)c(CO)c2c1` [Compound 12], the IC50 is not below 1000 nM.
On to `O=C(c1nc2cc(-c3cscn3)ccc2[nH]1)N(CCO)c1cccc(Cl)c1Cl` [Compound 161], for which the IC50 is not above 100 nM.
Then `CCc1cccc2[nH]c(C(=O)N(C)C3CCCC3)nc12` [Compound 94, N-cyclopentyl-4-ethyl-N-methyl-1H-benzo[d]imidazole-2-carboxamide], with not below 1000 nM; and `C=C(c1cn[nH]c1)c1ccc2[nH]c(C(=O)N(CCO)c3cccc(Cl)c3Cl)nc2c1` [Compound 187], with not above 100 nM.
Take `CC(C)(CO)c1ccc2[nH]c(C(=O)N(CC3(F)COC3)c3cccc(Cl)c3Cl)nc2c1` [Compound 205]: the IC50 was not above 100 nM.
For the compound `Cc1ccc2[nH]c(C(=O)N(C)c3cccc(Cl)c3Cl)c(CO)c2c1` [Compound 1, N-(2,3-dichlorophenyl)-3-(hydroxymethyl)-N,5-dimethyl-1H-indole-2-carboxamide], the IC50 is not above 100 nM.
In the case of `Cc1ccc2[nH]c(C(=O)N(C)C3CCCC3)c(CNc3ncc[nH]3)c2c1` [Compound 77, 3-(((1H-imidazol-2-yl)amino)methyl)-N-cyclopentyl-N,5-dimethyl-1H-indole-2-carboxamide], the IC50 was not below 1000 nM.
Take `Cc1ccc2[nH]c(C(=O)N(C)C3CCCC3)c(CNc3cc(C)[nH]n3)c2c1` [Compound 83, N-cyclopentyl-N,5-dimethyl-3-(((5-methyl-1H-pyrazol-3-yl)amino)methyl)-1H-indole-2-carboxamide]: the IC50 was in the range of 101 to 500 nM.
As to `CN(C(=O)c1nc2c([nH]1)CCCC2)C1CCCC1` [Compound 58, N-cyclopentyl-N-methyl-4,5,6,7-tetrahydro-1H-benzo[d]imidazole-2-carboxamide], the IC50 is not below 1000 nM.
On to `CS(=O)(=O)c1ccc2[nH]c(C(=O)N(CCO)c3cccc(Cl)c3Cl)nc2c1` [Compound 108, N-(2,3-dichlorophenyl)-N-(2-hydroxyethyl)-5-(methylsulfonyl)-1H-benzo[d]imidazole-2-carboxamide], for which the IC50 is 101 to 500 nM.
For `O=C(c1nc2cc(Cl)cc(Cl)c2[nH]1)N(CC(F)(F)CO)c1cccc(F)c1Cl` [Compound 235], the IC50 fell in the range of 101 to 500 nM.
Take `CS(=O)(=O)CCN(C(=O)c1nc2cc(C(F)(F)F)ccc2[nH]1)c1cccc(F)c1Cl` [Compound 229, N-(2-chloro-3-fluorophenyl)-N-(2-(methylsulfonyl)ethyl)-5-(trifluoromethyl)-1H-benzo[d]imidazole-2-carboxamide]: the IC50 was not above 100 nM.
Take `N#Cc1cc(Cl)c(Cl)c(N(CCO)C(=O)c2nc3cc(C(F)(F)F)ccc3[nH]2)c1` [Compound 109, N-(2,3-dichloro-5-cyanophenyl)-N-(2-hydroxyethyl)-5-(trifluoromethyl)-1H-benzo[d]imidazole-2-carboxamide]: the IC50 lay in the range of 101 to 500 nM.
`CN(C(=O)c1nc2cc(C(F)(F)F)ccc2[nH]1)C1CCCC1` [Compound 48, N-cyclopentyl-N-methyl-5-(trifluoromethyl)-1H-benzo[d]imidazole-2-carboxamide]: the IC50 was not above 100 nM.
For the compound `CC1(O)CC(N(C(=O)c2nc3cc(C(F)(F)F)ccc3[nH]2)c2cccc(F)c2Cl)C1` (stereo not drawn) [Compound 239, N-(2-chloro-3-fluorophenyl)-N-(3-hydroxy-3-methylcyclobutyl)-5-(trifluoromethyl)-1H-benzo[d]imidazole-2-carboxamide], the IC50 fell in the range of 101 to 500 nM.
`NC(=O)C(F)(F)CN(C(=O)c1nc2cc(Cl)cc(F)c2[nH]1)c1ccc(F)c(F)c1Cl` [Compound 231]: the IC50 is not above 100 nM.
As for `Cc1ccc2[nH]c(C(=O)N(C)C3CCCC3)c(CN)c2c1` [Compound 68, 3-(aminomethyl)-N-cyclopentyl-N,5-dimethyl-1H-indole-2-carboxamide], the IC50 was not below 1000 nM.
As for `CC(O)CN(C(=O)c1nc2cc(C(F)(F)F)ccc2[nH]1)c1cccc(Cl)c1Cl` (stereo not drawn) [Compound 170], the half-maximal inhibitory concentration (IC50) was not above 100 nM.
In the case of `Cc1c(Cl)cccc1N(CCO)C(=O)c1nc2cc(C(F)(F)F)ccc2[nH]1` [Compound 137, N-(3-chloro-2-methylphenyl)-N-(2-hydroxyethyl)-5-(trifluoromethyl)-1H-benzo[d]imidazole-2-carboxamide], the IC50 was not above 100 nM.
Consider `Cn1nc(N(CC2COC2)C(=O)c2nc3cc(C(F)(F)F)ccc3[nH]2)c(Cl)c1Cl` [Compound 111, N-(4,5-dichloro-1-methyl-1H-pyrazol-3-yl)-N-(oxetan-3-ylmethyl)-5-(trifluoromethyl)-1H-benzo[d]imidazole-2-carboxamide], for which the IC50 is not above 100 nM.
Consider `Cc1ccc2[nH]c(C(=O)N(C)C3CCCC3)nc2n1` [Compound 52, N-cyclopentyl-N,5-dimethyl-1H-imidazo[4,5-b]pyridine-2-carboxamide], for which the IC50 was not below 1000 nM.
With `Cc1ccc2[nH]c(C(=O)N(C)C3CCCC3)c(CC(N)=O)c2c1` [Compound 16, 3-(2-amino-2-oxoethyl)-N-cyclopentyl-N,5-dimethyl-1H-indole-2-carboxamide], the IC50 was 501 to 1000 nM.

The values are drawn from patent publication US20260265195A1, “SARM1 MODULATORS, PREPARATIONS, AND USES THEREOF” (SIRONAX LTD, priority 2022, published 2026).
